From ChEMBL document CHEMBL1201862, “PubChem BioAssay data set” (2004)
Active and inactive are the calls of the source. No stated cut-off is given here; in the data, actives have a measured IC50 and inactives only a lower limit.

Molecular target: Envelope glycoprotein gp160 (Human immunodeficiency virus 1, UniProt Q6QLK5)
Experiment: cell-free HIV fusion peptide-binding blockers – biochemical, uHTS, fluorescence dequenching, […] (AID 1986)

Chain of Envelope glycoprotein gp160 (Q6QLK5 whole entry, the tested form may be a part): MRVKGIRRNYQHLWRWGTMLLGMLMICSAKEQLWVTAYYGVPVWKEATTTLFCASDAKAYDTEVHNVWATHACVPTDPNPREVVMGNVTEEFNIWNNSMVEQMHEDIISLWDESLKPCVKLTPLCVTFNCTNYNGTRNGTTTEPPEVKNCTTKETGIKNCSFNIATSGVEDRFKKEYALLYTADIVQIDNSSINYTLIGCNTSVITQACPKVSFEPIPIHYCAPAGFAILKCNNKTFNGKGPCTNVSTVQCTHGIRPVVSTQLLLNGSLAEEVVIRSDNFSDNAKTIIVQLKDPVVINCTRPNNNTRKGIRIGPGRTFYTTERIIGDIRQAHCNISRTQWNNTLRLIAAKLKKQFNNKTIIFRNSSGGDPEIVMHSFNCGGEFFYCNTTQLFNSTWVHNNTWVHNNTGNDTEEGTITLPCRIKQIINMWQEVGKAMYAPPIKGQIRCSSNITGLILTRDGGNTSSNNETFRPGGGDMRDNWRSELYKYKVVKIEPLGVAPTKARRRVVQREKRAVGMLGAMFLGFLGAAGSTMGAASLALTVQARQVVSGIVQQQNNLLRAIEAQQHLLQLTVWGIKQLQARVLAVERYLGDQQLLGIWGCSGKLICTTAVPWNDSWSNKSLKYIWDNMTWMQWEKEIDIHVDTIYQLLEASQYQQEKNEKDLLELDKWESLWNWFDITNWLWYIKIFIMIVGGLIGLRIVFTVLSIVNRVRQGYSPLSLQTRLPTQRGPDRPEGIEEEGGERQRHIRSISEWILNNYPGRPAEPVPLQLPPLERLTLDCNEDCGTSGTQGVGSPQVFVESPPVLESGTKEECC

## O=C(O)CN1C(=O)/C(=C\c2ccccc2OCc2ccc(Cl)cc2Cl)SC1=S
  IC50: 16.1 µM (active)
